Assay results taken from the NIST ThermoML archive (doi:10.1016/j.tca.2016.03.026).

Columns and labels:
[1] = xn = mol fraction of the nth substance listed; settings: 100 kPa, Liquid; for speed of sound: Frequency=3 MHz, Sing-around technique in a fixed-path interferometer; for mass density: Vibrating tube method
[2] = refractive index (Na D-line) (dimensionless); xn = mol fraction of the nth substance listed; settings: 100 kPa, Liquid, Standard Abbe refractometry

CCCCCCCC[n+]1ccn(C)c1.F[B-](F)(F)F [1-methyl-3-octylimidazolium tetrafluoroborate] + CCCCO
Settings	mass density, 298.15 K [kg/m3]	mass density, 308.15 K [kg/m3]	mass density, 318.15 K [kg/m3]	refractive index, 298.15 K	refractive index, 308.15 K	refractive index, 318.15 K	speed of sound, 298.15 K [m/s]	speed of sound, 308.15 K [m/s]	speed of sound, 318.15 K [m/s]
[1], x1 = 0.1027	878.23	870.62	862.9	–	–	–	1273.2	1240.8	1206.7
[1], x1 = 0.2022	929.75	922.28	914.69	–	–	–	1306.5	1274.7	1241.8
[1], x1 = 0.3056	970.63	963.3	955.89	–	–	–	1339.7	1308.7	1276.3
[1], x1 = 0.3989	999.88	992.71	985.42	–	–	–	1366.1	1336	1304.2
[1], x1 = 0.5062	1027.17	1020.16	1013	–	–	–	1392.8	1363.2	1333.3
[1], x1 = 0.6018	1047.22	1040.32	1033.31	–	–	–	1413.7	1384.8	1356
[1], x1 = 0.6978	1064.35	1057.54	1050.61	–	–	–	1431.9	1403.8	1377
[1], x1 = 0.8014	1080.2	1073.47	1066.62	–	–	–	1450.2	1423	1397.2
[1], x1 = 0.9062	1094.06	1087.36	1080.57	–	–	–	1468.3	1441.6	1416.3
[1], x1 = 1	1105.02	1098.32	1091.54	–	–	–	1485.1	1458.5	1433.2
[2], x1 = 0.1027	–	–	–	1.40763	1.40492	1.40232	–	–	–
[2], x1 = 0.2022	–	–	–	1.41502	1.41254	1.40964	–	–	–
[2], x1 = 0.3056	–	–	–	1.41903	1.41692	1.41438	–	–	–
[2], x1 = 0.3989	–	–	–	1.42183	1.41956	1.41736	–	–	–
[2], x1 = 0.5062	–	–	–	1.42405	1.42175	1.41965	–	–	–
[2], x1 = 0.6018	–	–	–	1.42594	1.42362	1.42126	–	–	–
[2], x1 = 0.6978	–	–	–	1.42791	1.42542	1.42301	–	–	–
[2], x1 = 0.8014	–	–	–	1.42974	1.42732	1.42444	–	–	–
[2], x1 = 0.9062	–	–	–	1.43151	1.42861	1.42615	–	–	–
[2], x1 = 1	–	–	–	1.43253	1.42984	1.42715	–	–	–

CCCCCCCC[n+]1ccn(C)c1.F[B-](F)(F)F [1-methyl-3-octylimidazolium tetrafluoroborate] + CC(C)(C)O
Settings	mass density, 298.15 K [kg/m3]	mass density, 308.15 K [kg/m3]	mass density, 318.15 K [kg/m3]	refractive index, 298.15 K	refractive index, 308.15 K	refractive index, 318.15 K	speed of sound, 298.15 K [m/s]	speed of sound, 308.15 K [m/s]	speed of sound, 318.15 K [m/s]
[1], x1 = 0.1017	858.69	849.64	840.32	–	–	–	1188.3	1157.2	1119.1
[1], x1 = 0.1988	914.56	906	897.39	–	–	–	1254.2	1221.6	1190.2
[1], x1 = 0.3011	959.49	951.41	943.34	–	–	–	1309.4	1275.6	1246.5
[1], x1 = 0.4052	994.81	987.25	979.38	–	–	–	1351.5	1322.2	1293.3
[1], x1 = 0.5002	1020.68	1013.4	1005.9	–	–	–	1382.5	1353.6	1324.9
[1], x1 = 0.604	1044.05	1037.31	1029.92	–	–	–	1410.1	1383.3	1354.5
[1], x1 = 0.7024	1062.66	1056.01	1049.1	–	–	–	1433.4	1409	1380.2
[1], x1 = 0.7992	1078.39	1071.8	1064.98	–	–	–	1451.3	1428.2	1402.2
[1], x1 = 0.9014	1092.82	1086.23	1079.48	–	–	–	1467.6	1443.3	1417.2
[1], x1 = 1	1105.02	1098.32	1091.54	–	–	–	1485.1	1458.5	1433.2
[2], x1 = 0.1017	–	–	–	1.40022	1.39681	1.39317	–	–	–
[2], x1 = 0.1988	–	–	–	1.40992	1.40684	1.40405	–	–	–
[2], x1 = 0.3011	–	–	–	1.41591	1.41342	1.41058	–	–	–
[2], x1 = 0.4052	–	–	–	1.41962	1.41719	1.41452	–	–	–
[2], x1 = 0.5002	–	–	–	1.42177	1.41911	1.41635	–	–	–
[2], x1 = 0.604	–	–	–	1.42411	1.42168	1.41871	–	–	–
[2], x1 = 0.7024	–	–	–	1.42628	1.42348	1.42104	–	–	–
[2], x1 = 0.7992	–	–	–	1.42805	1.42562	1.42272	–	–	–
[2], x1 = 0.9014	–	–	–	1.43025	1.42769	1.42513	–	–	–
[2], x1 = 1	–	–	–	1.43253	1.42984	1.42715	–	–	–
